# Source: patent US11590137B2, “Ruxolitinib formulation for reduction of itch in atopic dermatitis” (Incyte Corporation, priority 2019, dated 2023)
# Read-outs that look alike come from different tables or passages of the source.
# Assays:
# [1] = Solubility of ruxolitinib free base or 1:1 phosphate salt in potential solvents (HPLC); assay type: physicochemical; conditions: for solubility at 24 h: thermodynamic from solid; for Solubility: listed as Free Base
# Method: First, in order to determine the solubility of ruxolitinib (free base) or its 1:1 phosphate salt, approximately 5 mL of a potential solvent was added to approximately 50 mg of the API or its salt at room temperature. The mixtures were suspended and rotated on a wheel. If the mixtures became clear solutions, more solid material was added. The suspensions were then suspended over 24 hours. The samples were filtered through 0.2 micron filters. The liquid portions were collected and diluted with 50/50 water methanol/water. The concentrations of the diluted samples were analyzed by HPLC. When the free base or salt was fairly insoluble, the results are approximate only.
# [2] = test system: patients with moderate-to-severe AD; conditions: subcutaneous, At Week 16, Solo1 and Solo2 trials, cited from earlier work; for Proportion of patient achieving a 4-point improvement in itch NRS score: itch NRS score of ≥4 at baseline
# [3] = 300 mg every other week, first printed value
# [4] = 300 mg every other week, second printed value
# [5] = 300 mg every week, first printed value
# [6] = 300 mg every week, second printed value
compound,measurement,setting,value
N#CC[C@H](C1CCCC1)n1cc(-c2ncnc3[nH]ccc23)cn1 [ruxolitinib phosphate],solubility at 24 h,"[1]; C12-15 alcohol benzoate, oil or lipid",< 200 µg/mL
same,solubility at 24 h,"[1]; caprylic triglyceride, oil or lipid",< 200 µg/mL
same,solubility at 24 h,"[1]; dimethicone, oil or lipid",< 200 µg/mL
same,solubility at 24 h,"[1]; isopropyl myristate, oil or lipid",< 100 µg/mL
same,solubility at 24 h,"[1]; mineral oil, oil or lipid",< 100 µg/mL
same,solubility at 24 h,"[1]; oleyl alcohol, oil or lipid, Olelyl alcohol",100 µg/mL
same,solubility at 24 h,"[1]; propylene glycol, organic solvent or mixture",24000 µg/mL
same,solubility at 24 h,"[1]; water/PEG 200 (50/50), aqueous with cosolvent or surfactant or cyclodextrin",23000 µg/mL
same,solubility at 24 h,"[1]; water/glycerin/trolamine (40/40/20), aqueous with cosolvent or surfactant or cyclodextrin",18000 µg/mL
"N#CC[C@H](C1CCCC1)n1cc(-c2ncnc3[nH]ccc23)cn1 [ruxolitinib, (R)-3-(4-(7H-pyrrolo[2,3-d]pyrimidin-4-yl)-1H-pyrazol-1-yl)-3-cyclopentylpropanenitrile]",solubility at 24 h,"[1]; 0.1 M citric buffer, pH 4, aqueous buffer, pH 4, citric buffer, 0.1M",1100 µg/mL
same,solubility at 24 h,"[1]; 0.1 M citric buffer, pH 6, aqueous buffer, pH 6, citric buffer, 0.1M",150 µg/mL
same,Solubility,[1]; C12-15 alcohol benzoate,150 µg/mL
same,Solubility,[1]; Caprylic triglyceride,150 µg/mL
same,Solubility,[1]; Mineral oil,80 µg/mL
same,Solubility,[1]; Olelyl alcohol,80 µg/mL
same,solubility at 24 h,"[1]; PEG 200, organic solvent or mixture, PEG 200",17400 µg/mL
same,solubility at 24 h,"[1]; PEG 300, organic solvent or mixture, PEG 300",10600 µg/mL
same,solubility at 24 h,"[1]; Transcutol, organic solvent or mixture",7600 µg/mL
same,Solubility,[1]; Water/PEG 200 (50/50),17400 µg/mL
same,solubility at 24 h,"[1]; benzyl alcohol, organic solvent or mixture",2300 µg/mL
same,solubility at 24 h,"[1]; ethanol, organic solvent or mixture",5500 µg/mL
same,solubility at 24 h,"[1]; glycerin, organic solvent or mixture",8300 µg/mL
same,solubility at 24 h,"[1]; isopropanol, organic solvent or mixture",450 µg/mL
same,solubility at 24 h,"[1]; isosorbide dimethyl ether, organic solvent or mixture",300 µg/mL
same,solubility at 24 h,"[1]; trolamine, organic solvent or mixture",38600 µg/mL
same,solubility at 24 h,"[1]; water, room temperature",2000 µg/mL
same,solubility at 24 h,"[1]; water/glycerin (50/50), aqueous with cosolvent or surfactant or cyclodextrin, Water/glyercin (50/50)",15900 µg/mL
dupilumab: a systemic biologic agent; phase 3 trials in moderate-to-severe AD cited for comparison,Proportion of patients achieving EASI-75,[2]; [3],44%
same,Proportion of patients achieving IGA-TS,[2]; [3],36%
same,Proportion of patients achieving EASI-75,[2]; [4],51%
same,Proportion of patients achieving IGA-TS,[2]; [4],38%
same,Proportion of patient achieving a 4-point improvement in itch NRS score,[2]; [3],36%
same,Proportion of patient achieving a 4-point improvement in itch NRS score,[2]; [4],41%
same,Proportion of patients achieving EASI-75,[2]; [5],48%
same,Proportion of patients achieving IGA-TS,[2]; [5],36%
same,Proportion of patients achieving EASI-75,[2]; [6],52%
same,Proportion of patients achieving IGA-TS,[2]; [6],37%
same,Proportion of patient achieving a 4-point improvement in itch NRS score,[2]; [5],39%
same,Proportion of patient achieving a 4-point improvement in itch NRS score,[2]; [6],40%
